Assay results as given in patent US20060030623A1, “Agent for the treatment or prevention of diabetes, obesity or arteriosclerosis” (priority 2004, published 2006).

Legend:
[1] = Antidiabetic effect: plasma parameters in KKAy mice after 14 days of Compound (1) in diet; type: in vivo, mouse (male KKAy, genetically diabetic, insulin-resistant); conditions: blood on day 15; for Free fatty acid / Insulin / Neutral fat: plasma
Text: Male KKAy mice (Clea Japan, Inc.) aged 7 weeks which are genetically diabetic (insulin-resistant) were used in the test. Blood was previously collected from the orbital venous plexus of animals acclimated to feeding with normal powdered diet (CRF-1, Oriental Yeast, Co., Ltd.), and then the animals were grouped into 5 groups containing 6 animals each so that there might be no intergroup difference with respect to plasma parameters (neutral fat value, free fatty acid value, insulin value, blood sugar level). Compound (1) was added to the powdered diet so that the concentration in the diet might be 1, 3, 10, and 30 mg/kg/day. The animals were allowed to take the diet ad libitum for 14 days, and blood was collected again from the orbital venous plexus in the morning on day 15 for the measurement of the above-mentioned plasma parameters.

[2] = Anti-obesity effect: body weight and gain in rabbits on high fat diet; type: in vivo, Japanese white rabbits; conditions: high fat diet restricted to 100 g/day, after 12 weeks
Text: Japanese white rabbits (Kitayama Labes., Co Ltd.) aged 9 weeks were used in the test. Blood was collected from the auricular artery of animals acclimated to feeding with high fat diet (RC-4 containing 0.3% cholesterol and 3% peanut oil, supplied by Oriental Yeast, Co., Ltd.), and then the animals were grouped into 4 groups containing 12 animals each so that there might be no intergroup difference with respect to body weight and plasma parameters (neutral fat value, total cholesterol value, HDL cholesterol value). Compound (1) was added to the high fat diet so that the intake of Compound (1) might be 3, 10, and 30 mg/kg/100 g diet/day. The animals were given the diet restricted to 100 g diet/day for 12 weeks, and body weight and its gain were determined after the 12 weeks.

[3] = Visceral fat-decreasing effect: fat weight by X ray CT in rats on high fat diet; type: in vivo; conditions: SD rats, 35% (w/w) high fat diet with 0.029% (w/w) Compound (1), 3 months
Text: SD rats (Charles River Japan, Inc.) aged 8 weeks were used in the test. Animals acclimated to feeding with 35% (w/w) high fat diet for 1 week were grouped into 2 groups, i.e. a control group and a group treated with Compound (1), for the test. Animals in the control group received the 35% (w/w) high fat diet, and those in the Compound (1) group received the diet prepared by adding Compound (1) to 0.029% (w/w) of the 35% (w/w) high fat diet, for 3 months. Tap water was available ad libitum to the animals in the test.
Fat weight was determined 3 months later with an X ray CT scanner for laboratory animals (Aloka).

[4] = Anti-arteriosclerosis effect: lipid-stained area of aorta in rabbits on high fat diet; type: in vivo, Japanese white rabbits; conditions: rabbit aorta, lipid stain, high fat diet 100 g/day, 12 weeks
Text: Japanese white rabbits (Kitayama Labes., Co Ltd.) aged 9 weeks were used in the test. Blood was collected from the auricular artery of animals acclimated to feeding with high fat diet (RC-4 containing 0.3% cholesterol and 3% peanut oil, Oriental Yeast, Co., Ltd.), and then the animals were grouped into 4 groups containing 12 animals each so that there might be no intergroup difference with respect to body weight and parameters in plasma (neutral fat value, total cholesterol value, HDL cholesterol value). Compound (1) was added to the high fat diet so that the intake of Compound (1) might be 3, 10, and 30 mg/kg/100 g diet/day. The animals were allowed to take the diet restricted to 100 g diet/day for 12 weeks, lipid of the aorta was stained, and the stained region was defined as the arteriosclerotic region. The percentage of area of the arteriosclerotic region was calculated according to the equation below.

Solubility in water = type: physicochemical; conditions: general statement, no test described

## CCOC(=O)C(COC(=O)Cc1ccc(NC(=O)c2ccccc2-c2ccc(C(F)(F)F)cc2)c(C(=O)N(C)C)c1)(C(=O)OCC)c1ccccc1 [Compound (1), 2-(2-{3-dimethylcarbamoyl-4-[(4′-trifluoromethyl-biphenyl-2-carbonyl)amino]phenyl}acetoxymethyl)-2-phenylmalonic acid diethyl ester]
[1]; 1 mg/kg/day in diet
  Blood sugar: 413 ± 34.9 mg/dL
  Free fatty acid: 353 ± 15.9 µEq/l
  Insulin: 117 ± 14.0 ng/mL
  Neutral fat: 676 ± 57.2 mg/dL
[1]; 3 mg/kg/day in diet
  Blood sugar: 516 ± 14.9 mg/dL
  Free fatty acid: 293 ± 11.7 µEq/l
  Insulin: 103 ± 10.5 ng/mL
  Neutral fat: 716 ± 79.9 mg/dL
[1]; 10 mg/kg/day in diet
  Blood sugar: 405 ± 36.8 mg/dL
  Free fatty acid: 235 ± 24.9 µEq/l
  Insulin: 102 ± 11.3 ng/mL
  Neutral fat: 545 ± 53.1 mg/dL
[1]; 30 mg/kg/day in diet
  Blood sugar: 331 ± 39.6 mg/dL
  Free fatty acid: 171 ± 17.4 µEq/l
  Insulin: 67 ± 10.4 ng/mL
  Neutral fat: 298 ± 21.0 mg/dL
[2]; 3 mg/kg/day
  Body weight: 3122.1 g
  Body weight gain: 1176.0 g
[2]; 10 mg/kg/day
  Body weight: 2997.1 g
  Body weight gain: 1065.9 g
[2]; 30 mg/kg/day
  Body weight: 2969.0 g
  Body weight gain: 1025.4 g
[3]
  Muscle weight: 204.4 g
  Subcutaneous fat weight: 14.9 g
  Visceral fat weight: 28.8 g
[4]; 3 mg/kg/day
  Percentage of area of arteriosclerotic region: 28.4%
[4]; 10 mg/kg/day
  Percentage of area of arteriosclerotic region: 7.7%
[4]; 30 mg/kg/day
  Percentage of area of arteriosclerotic region: 0.15%
Solubility in water
  Solubility in water: slightly soluble or insoluble in water
